Source: the supplement of paper PMC11061612

What was measured:
Test in all cases: combination Emax (second highest fraction inhibited in the dose matrix, 72 h); higher = more inhibition; extreme values may be limits of the assay
[1] = tested on: 23132-87 (Gastric Carcinoma)
Method in brief: (§1)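 After 24 hours at 37°C and 5% CO2 in 1536-well plates, cells in DMEM/F12 or RPMI plus 10% FBS received two-drug dose matrices for 72 hours. Viability came from CellTiter-Glo 2.0 luminescence and was scaled as inhibition, anchored at 0 by vehicle wells and at 1 by blank wells. Combination Emax is taken as the second-highest inhibition in the matrix, and Bliss excess as the observed combination effect less EA + EB − EA·EB, with EA and EB the single-agent effects.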

[2] = tested on: A2058 (Melanoma)
Method in brief: as §1

[3] = tested on: CAL-62 (Thyroid Gland Carcinoma)
Method in brief: as §1

[4] = tested on: COLO-680N (Esophageal Squamous Cell Carcinoma)
Method in brief: as §1

[5] = tested on: FADU (Head and Neck Carcinoma)
Method in brief: as §1

[6] = tested on: GB-1 (Glioblastoma)
Method in brief: as §1

[7] = tested on: HSC-39 (Gastric Carcinoma)
Method in brief: as §1

[8] = tested on: KE-37 (T-Lymphoblastic Leukemia)
Method in brief: as §1

[9] = tested on: L-1236 (Hodgkin's Lymphoma)
Method in brief: as §1

[10] = tested on: LN-229 (Glioblastoma)
Method in brief: as §1

[11] = tested on: MFE-280 (Endometrial Carcinoma)
Method in brief: as §1

[12] = tested on: NCI-H23 (Lung Adenocarcinoma)
Method in brief: as §1

[13] = tested on: NCI-H2342 (Lung Adenocarcinoma)
Method in brief: as §1

[14] = tested on: PC-3_[JPC-3] (Lung Adenocarcinoma)
Method in brief: as §1

[15] = tested on: REH (B-Lymphoblastic Leukemia)
Method in brief: as §1

[16] = tested on: RERF-GC-1B (Gastric Carcinoma)
Method in brief: as §1

[17] = tested on: SF268 (Low Grade Glioma)
Method in brief: as §1

[18] = tested on: SU-DHL-10 (B-Cell Non-Hodgkin's Lymphoma)
Method in brief: as §1

[19] = tested on: TE-8 (Esophageal Squamous Cell Carcinoma)
Method in brief: as §1

[20] = tested on: WM278 (Melanoma)
Method in brief: as §1

Compound	combination Emax [1]	combination Emax [2]	combination Emax [3]	combination Emax [4]	combination Emax [5]	combination Emax [6]	combination Emax [7]	combination Emax [8]	combination Emax [9]	combination Emax [10]	combination Emax [11]	combination Emax [12]	combination Emax [13]	combination Emax [14]	combination Emax [15]	combination Emax [16]	combination Emax [17]	combination Emax [18]	combination Emax [19]	combination Emax [20]
CCc1c2c(nc3ccc(O)cc13)-c1cc3c(c(=O)n1C2)COC(=O)[C@]3(O)CC [SN-38] + CN(C)CCCOc1ccc(-c2ccc3ncc4c(c3c2)n(C2CCOCC2)c(=O)n4C)cn1 [AZD0156] (first compound max 0.3 µM, 7x7, partner max 1 µM)	0.845	0.401	0.872	0.412	1	0.735	0.964	1	0.76	0.283	0.611	0.554	0.225	0.732	1	0.788	0.902	0.986	0.69	0.635
C[C@@H](c1ccc2nccn2c1)n1nnc2ncc(-c3cnn(C)c3)nc21 [Savolitinib] + CC1(C)CCC(CN2CCN(c3ccc(C(=O)NS(=O)(=O)c4ccc(NCC5CCOCC5)c([N+](=O)[O-])c4)c(Oc4cnc5[nH]ccc5c4)c3)CC2)=C(c2ccc(Cl)cc2)C1 [Venetoclax] (first compound max 1 µM, 7x7, partner max 1 µM)	0.147	0.107	0.142	0.211	0.154	0.109	0.197	0.113	0.416	0.0841	0.186	0.205	0.188	0.129	0.608	0.128	0.104	0.0782	0.229	0.102
C[C@@H](c1ccc2nccn2c1)n1nnc2ncc(-c3cnn(C)c3)nc21 [Savolitinib] + Cc1c2c(nn1C)CSCc1cc(n(C)n1)CSc1cc(c3ccccc3c1)OCCCc1c(C(=O)O)n(C)c3c-2c(Cl)ccc13 [AZD5991] (first compound max 1 µM, 7x7, partner max 1 µM)	0.179	0.36	0.131	0.183	0.546	0.117	0.99	0.159	0.668	0.221	0.116	0.915	0.321	0.284	0.806	0.788	0.167	1	0.323	0.15
Cn1cnc2c(F)c(Nc3ccc(Br)cc3Cl)c(C(=O)NOCCO)cc21 [Selumetinib] + C=CCn1c(=O)c2cnc(Nc3ccc(N4CCN(C)CC4)cc3)nc2n1-c1cccc(C(C)(C)O)n1 [AZD1775] (first compound max 10 µM, partner max 1 µM)	0.275	0.685	0.607	0.181	0.521	0.321	0.82	0.947	0.956	0.316	0.212	0.915	0.353	0.452	0.62	0.788	0.473	0.98	0.57	0.641
Cn1cnc2c(F)c(Nc3ccc(Br)cc3Cl)c(C(=O)NOCCO)cc21 [Selumetinib] + CC(C)n1c(=O)n(C)c2cnc3cc(F)c(-c4ccc(OCCCN5CCCCC5)nc4)cc3c21 [AZD1390] (first compound max 10 µM, 7x7, partner max 0.3 µM)	0.0937	0.426	0.219	0.143	0.271	0.0241	0.201	0.303	0.301	0.153	0.17	0.339	0.0339	0.159	0.0781	0.368	0.139	0.0401	0.546	0.841
Cn1cnc2c(F)c(Nc3ccc(Br)cc3Cl)c(C(=O)NOCCO)cc21 [Selumetinib] + CCN(CCO)CCCOc1ccc2c(Nc3cc(CC(=O)Nc4cccc(F)c4)[nH]n3)ncnc2c1 [AZD2811] (first compound max 10 µM, 7x7, partner max 1 µM)	0.104	0.649	0.291	0.188	0.467	0.117	0.903	1	0.289	0.286	0.161	0.484	0.365	0.189	0.604	0.436	0.275	0.738	0.347	0.581
Cn1cnc2c(F)c(Nc3ccc(Br)cc3Cl)c(C(=O)NOCCO)cc21 [Selumetinib] + C[C@@H]1COCCN1C2=NC(=NC(=C2)C3(CC3)[S@](=N)(=O)C)C4=C5C=CNC5=NC=C4 [AZD6738] (first compound max 10 µM, 7x7, partner max 10 µM)	0.429	0.83	0.672	0.203	0.404	0.337	0.994	0.959	0.839	0.552	0.151	0.874	0.483	0.309	0.684	0.522	0.49	0.911	0.495	0.587
CC(=O)Nc1cccc(-n2c(=O)n(C3CC3)c(=O)c3c(Nc4ccc(I)cc4F)n(C)c(=O)c(C)c32)c1 [Trametinib] + Cc1nc(-c2cn3c(n2)-c2ccc(-c4cnn(C(C)(C)C(N)=O)c4)cc2OCC3)n(C(C)C)n1 [Taselisib] (first compound max 1 µM, 7x7, partner max 10 µM)	0.636	1	0.765	0.501	0.837	0.845	1	0.676	0.513	0.803	0.939	0.686	0.5	0.882	0.544	0.949	0.484	0.977	0.782	0.983
CC1(C)CCC(CN2CCN(c3ccc(C(=O)NS(=O)(=O)c4ccc(NCC5CCOCC5)c([N+](=O)[O-])c4)c(Oc4cnc5[nH]ccc5c4)c3)CC2)=C(c2ccc(Cl)cc2)C1 [Venetoclax] + C1CN(CCC1(C(=O)N[C@@H](CCO)C2=CC=C(C=C2)Cl)N)C3=NC=NC4=C3C=CN4 [Capivasertib] (first compound max 1 µM, 7x7, partner max 3 µM)	0.0322	0.323	0.172	0.0815	0.155	0.185	0.956	0.695	0.644	0.086	0.512	0.119	0.248	0.168	0.936	0.335	0.273	0.957	0.424	0.232
CC1(C)CCC(CN2CCN(c3ccc(C(=O)NS(=O)(=O)c4ccc(NCC5CCOCC5)c([N+](=O)[O-])c4)c(Oc4cnc5[nH]ccc5c4)c3)CC2)=C(c2ccc(Cl)cc2)C1 [Venetoclax] + C=CCn1c(=O)c2cnc(Nc3ccc(N4CCN(C)CC4)cc3)nc2n1-c1cccc(C(C)(C)O)n1 [AZD1775] (first compound max 1 µM, partner max 1 µM)	0.36	0.413	0.849	0.257	0.491	0.296	1	1	0.865	0.292	0.621	0.855	0.268	0.427	1	0.753	0.524	0.967	0.883	0.436
CC1(C)CCC(CN2CCN(c3ccc(C(=O)NS(=O)(=O)c4ccc(NCC5CCOCC5)c([N+](=O)[O-])c4)c(Oc4cnc5[nH]ccc5c4)c3)CC2)=C(c2ccc(Cl)cc2)C1 [Venetoclax] + CCN(CCO)CCCOc1ccc2c(Nc3cc(CC(=O)Nc4cccc(F)c4)[nH]n3)ncnc2c1 [AZD2811] (first compound max 1 µM, 7x7, partner max 1 µM)	0.152	0.402	0.252	0.187	0.219	0.094	0.981	1	0.718	0.208	0.371	0.184	0.217	0.182	1	0.298	0.328	0.807	0.396	0.337
CC1(C)CCC(CN2CCN(c3ccc(C(=O)NS(=O)(=O)c4ccc(NCC5CCOCC5)c([N+](=O)[O-])c4)c(Oc4cnc5[nH]ccc5c4)c3)CC2)=C(c2ccc(Cl)cc2)C1 [Venetoclax] + CN(C)CCCOc1ccc(-c2ccc3ncc4c(c3c2)n(C2CCOCC2)c(=O)n4C)cn1 [AZD0156] (first compound max 1 µM, 7x7, partner max 1 µM)	0.157	0.226	0.465	0.173	0.196	0.115	0.926	0.196	0.705	0.212	0.423	0.122	0.203	0.25	0.908	0.242	0.298	0.137	0.519	0.211
